According to patent US10144732B2 (BIOGEN MA INC., priority 2014, dated 2018):
Structures can show the parent of a compound that is named as a salt.

Molecular target: T1, Human ATX protein (Homo sapiens, UniProt Q13822)
T1 construct: made in house
Test: ATX biochemical assay (FRET, FS-3 substrate)
Settings: FRET assay, FS-3 2 μM, ATX 1.0 μg/mL, 30 minutes preincubation, 2 hours reaction at room temperature; read-out: IC50
From the text: ATX (Autotaxin) is a 125 KDa glycoprotein with lysophospholipase D (LPLD) activity that generates the bioactive lipid lysophosphatidic acid (LPA) from lysophosphatidylcholine (LPC). The ATX biochemical assay utilizes a FRET (fluorescence resonance energy transfer) technology platform. The fluorescence signal of FRET substrate FS-3 is quenched due to intra-molecular FRET of a fluorophore to a non-fluorescing quencher (Ferguson, C. G., et al., Org Lett. 2006 May 11; 8(10): 2023-2026, which is incorporated by reference in its entirety). ATX catalyzes the hydrolysis of the substrate which separates the dabsyl quencher from the fluorescein reporter, which becomes fluorescent. The reaction is monitored by a SpectraMax M5 (Molecular Devices, Sunnyvale, Calif.) with at excitation wavelength 485 nm and emission wavelength […].
Fatty acid free-BSA (Sigma A8806): 10 mg/mL in H2O, stored at 4° C.
2×ATX assay buffer: 100 mM Tris, 280 mM NaCl, 10 mM KCl, 2 mM CaCl2, 2 mM MgCl2, pH 7.4.
Human ATX protein: expressed and purified in house. Stored at −80° C.
Substrate FS-3 (Echelon, L-2000): 100 μg in 77.74 μL H2O (1 mM stock), stored at −20° C.
384-well flat bottom plates—Corning #3575.
Compound dilution—All compounds were provided at 10 mM in 100% DMSO. In the first well, 2 μL of 10 mM compound was added to 78 μL of DMSO (1:40 dilution). In subsequent wells 3-fold dilution (total 10 dilutions) were performed.
1×ATX assay buffer was made up with a final concentration of 1 mg/mL fatty acid free-BSA using 2×ATX assay buffer, 10 mg/ml fatty acid free-BSA and ddH2O.
[…]. The final concentration of ATX in the reaction as 1.0 μg/mL.
2 μL per well of compounds was transferred to provide the desired concentration. The plate was centrifuged, then incubated at room temperature for 30 minutes on the shaker.
FS-3 was diluted with 1×ATX assay buffer to a concentration of FS-3 of 10 μM (5×). Then, 10 μL was added per well to the assay plate. The final concentration of FS-3 in the reaction was 2 μM. The plate was centrifuged. The plate was kept shaking at room temperature for 2 hours. Because FS-3 substrate is light sensitive, plates were kept covered and protected from light.
Fluorescence was measured using SpectraMax M5 (excitation at 485 nm/emission at 538 nm, top read).

| IC50 [nM] | Compound |
| --- | --- |
| ≤ 100 | O=C(C[C@H]1CC[C@H](C(=O)O)CC1)N1CCc2c(C(F)(F)F)nn(Cc3cc(F)c(F)c(F)c3)c2C1 [Example 5-33, trans-4-(2-(1-(3,4,5-Trifluorobenzyl)-3-(trifluoromethyl)-4,5-dihydro-1H-pyrazolo[3,4-c]pyridin-6(7H)-yl)-2-oxoethyl)cyclohexanecarboxylic acid] |
| ≤ 100 | O=C(N[C@H]1CC[C@H](C(=O)O)CC1)N1CCc2c(C(F)(F)F)nn(Cc3ccc(Cl)cc3F)c2C1 [Example 5-7, trans-4-(1-(4-Chloro-2-fluorobenzyl)-3-(trifluoromethyl)-4,5,6,7-tetrahydro-1H-pyrazolo[3,4-c]pyridine-6-carboxamido)cyclohexanecarboxylic acid] |
| ≤ 100 | CCOC(=O)C1CCN(C(C)C(=O)N2CCc3c(C(F)(F)F)nn(Cc4ccc(Cl)cc4F)c3C2)CC1 (centres unmarked) [Example 12-6, Ethyl 1-(1-(1-(4-chloro-2-fluorobenzyl)-3-(trifluoromethyl)-4,5-dihydro-1H-pyrazolo[3,4-c]pyridin-6(7H)-yl)-1-oxopropan-2-yl)piperidine-4-carboxylate] |
| ≤ 100 | O=C(CC1CC(N2CCOCC2)C1)N1CCc2c(C(F)(F)F)nn(Cc3ccc(F)cc3)c2C1 (centres unmarked) [Example 22-5, 1-(1-(4-Fluorobenzyl)-3-(trifluoromethyl)-4,5-dihydro-1H-pyrazolo[3,4-c]pyridin-6(7H)-yl)-2-(3-morpholinocyclobutyl)ethanone TFA salt] |
| ≤ 100 | NC(=O)[C@H]1CC[C@@H](CC(=O)N2CCc3c(C(F)(F)F)nn(Cc4ccc(F)cc4)c3C2)CC1 [Example 20-1, cis-4-(2-(1-(4-Fluorobenzyl)-3-(trifluoromethyl)-4,5-dihydro-1H-pyrazolo[3,4-c]pyridin-6(7H)-yl)-2-oxoethyl)cyclohexanecarboxamide] |
| ≤ 100 | CC1(C)C(CC(=O)N2CCc3c(C(F)(F)F)nn(Cc4ccc(F)cc4)c3C2)CC1C(=O)O (mixture of isomers) [Example 6-15, 3-(2-(1-(4-Fluorobenzyl)-3-(trifluoromethyl)-4,5-dihydro-1H-pyrazolo[3,4-c]pyridin-6(7H)-yl)-2-oxoethyl)-2,2-dimethylcyclobutanecarboxylic acid] |
| ≤ 100 | O=C(C[C@H]1CC[C@H](C(=O)O)CC1)N1CCc2c(C(F)(F)F)nn(Cc3ccc(Cl)s3)c2C1 [Example 5-17, trans-4-(2-(1-((5-chlorothiophen-2-yl)methyl)-3-(trifluoromethyl)-4,5-dihydro-1H-pyrazolo[3,4-c]pyridin-6(7H)-yl)-2-oxoethyl)cyclohexanecarboxylic acid] |
| ≤ 100 | CCOC(=O)C1CCC(CC(=O)N2CCc3c(C(F)(F)F)nn(Cc4ccc(Cl)cc4Cl)c3C2)CC1 (centres unmarked) [Example 1-9, Ethyl 4-(2-(1-(2,4-dichlorobenzyl)-3-(trifluoromethyl)-4,5-dihydro-1H-pyrazolo[3,4-c]pyridin-6(7H)-yl)-2-oxoethyl)cyclohexanecarboxylate] |
| ≤ 100 | C[C@]1(C(=O)O)C[C@@H](CC(=O)N2CCc3c(C(F)(F)F)nn(Cc4ccc(F)cc4)c3C2)C1 [Example 7-23, cis-3-(2-(1-(4-Fluorobenzyl)-3-(trifluoromethyl)-4,5-dihydro-1H-pyrazolo[3,4-c]pyridin-6(7H)-yl)-2-oxoethyl)-1-methylcyclobutanecarboxylic acid] |
| ≤ 100 | N#CC1CCN(CC(=O)N2CCc3c(C(F)(F)F)nn(Cc4ccc(F)cc4)c3C2)C1 (centres unmarked) [Example 12-11, 1-(2-(1-(4-Fluorobenzyl)-3-(trifluoromethyl)-4,5-dihydro-1H-pyrazolo[3,4-c]pyridin-6(7H)-yl)-2-oxoethyl)pyrrolidine-3-carbonitrile TFA salt] |
| ≤ 100 | CCOC(=O)C1CCC(OC(=O)N2CCc3c(C(F)(F)F)nn(Cc4ccc(Cl)cc4F)c3C2)CC1 (centres unmarked) [Example 4-1, 4-(Ethoxycarbonyl)cyclohexyl1-(4-chloro-2-fluorobenzyl)-3-(trifluoromethyl)-4,5-dihydro-1H-pyrazolo[3,4-c]pyridine-6(7H)-carboxylate] |
| ≤ 100 | CC1(C)C(CC(=O)N2CCc3c(C(F)(F)F)nn(Cc4ccc(Cl)cc4F)c3C2)CC1C(=O)O (mixture of isomers) [Example 6-14, 3-(2-(1-(4-Chloro-2-fluorobenzyl)-3-(trifluoromethyl)-4,5-dihydro-1H-pyrazolo[3,4-c]pyridin-6(7H)-yl)-2-oxoethyl)-2,2-dimethylcyclobutanecarboxylic acid] |
| ≤ 100 | O=C(O)CC1CN(CC(=O)N2CCc3c(C(F)(F)F)nn(Cc4ccc(F)cc4)c3C2)C1 [Example 13-23, 2-(1-(2-(1-(4-Fluorobenzyl)-3-(trifluoromethyl)-4,5-dihydro-1H-pyrazolo[3,4-c]pyridin-6(7H)-yl)-2-oxoethyl)azetidin-3-yl)acetic acid TFA salt] |
| ≤ 100 | O=C(CC1CC2CNCC2C1)N1CCc2c(C(F)(F)F)nn(Cc3ccc(Cl)cc3F)c2C1 (centres unmarked) [Example 9-21, 1-(1-(4-Chloro-2-fluorobenzyl)-3-(trifluoromethyl)-4,5-dihydro-1H-pyrazolo[3,4-c]pyridin-6(7H)-yl)-2-(octahydrocyclopenta[c]pyrrol-5-yl)ethanone TFA salt] |
| ≤ 100 | CC(C)N1CCC(CC(=O)N2CCc3c(C(F)(F)F)nn(Cc4ccc(F)cc4)c3C2)C1 (centres unmarked) [Example 10-6, 1-(1-(4-Fluorobenzyl)-3-(trifluoromethyl)-4,5-dihydro-1H-pyrazolo[3,4-c]pyridin-6(7H)-yl)-2-(1-isopropylpyrrolidin-3-yl)ethanone] |
| ≤ 100 | CCOC(=O)C1CCC(CC(=O)N2CCc3cnn(Cc4ccc(Cl)cc4F)c3C2)CC1 (centres unmarked) [Example 1-4, Ethyl 4-(2-(1-(4-chloro-2-fluorobenzyl)-4,5-dihydro-1H-pyrazolo[3,4-c]pyridin-6(7H)-yl)-2-oxoethyl)cyclohexanecarboxylate] |
| ≤ 100 | O=C(O)C1CCC(CC(=O)N2CCc3cnn(Cc4ccc(F)cc4)c3C2)CC1 (single isomer, unassigned) [Example 7-15, 4-(2-(1-(4-Fluorobenzyl)-4,5-dihydro-1H-pyrazolo[3,4-c]pyridin-6(7H)-yl)-2-oxoethyl)cyclohexanecarboxylic acid] |
| ≤ 100 | O=C(CC1CCN(c2ccccn2)CC1)N1CCc2c(C(F)(F)F)nn(Cc3ccc(F)cc3)c2C1 [Example 18-2, 1-(1-(4-Fluorobenzyl)-3-(trifluoromethyl)-4,5-dihydro-1H-pyrazolo[3,4-c]pyridin-6(7H)-yl)-2-(1-(pyridin-2-yl)piperidin-4-yl)ethanone TFA salt] |
| ≤ 100 | O=C(O)C1CCC(CC(=O)N2CCc3c(C(F)(F)F)nn(Cc4ccc(Cl)cc4F)c3C2)C1 (mixture of isomers) [Example 6-6, 3-(2-(1-(4-Chloro-2-fluorobenzyl)-3-(trifluoromethyl)-4,5-dihydro-1H-pyrazolo[3,4-c]pyridin-6(7H)-yl)-2-oxoethyl)cyclopentanecarboxylic acid] |
| ≤ 100 | CS(=O)(=O)NC(=O)[C@H]1CC[C@@H](CC(=O)N2CCc3c(C(F)(F)F)nn(Cc4ccc(F)cc4)c3C2)CC1 [Example 19-2, cis-4-(2-(1-(4-fluorobenzyl)-3-(trifluoromethyl)-4,5-dihydro-1H-pyrazolo[3,4-c]pyridin-6(7H)-yl)-2-oxoethyl)-N-(methylsulfonyl)cyclohexane carboxamide] |
| ≤ 100 | O=C(O)CCCCC(=O)N1CCc2c(C(F)(F)F)nn(Cc3ccc(Cl)cc3F)c2C1 [Example 14-1, 6-(1-(4-Chloro-2-fluorobenzyl)-3-(trifluoromethyl)-4,5-dihydro-1H-pyrazolo[3,4-c]pyridin-6(7H)-yl)-6-oxohexanoic acid] |
| ≤ 100 | N#CC1CCN(CC(=O)N2CCc3c(C(F)(F)F)nn(Cc4ccc(F)cc4)c3C2)CC1 [Example 12-10, 1-(2-(1-(4-Fluorobenzyl)-3-(trifluoromethyl)-4,5-dihydro-1H-pyrazolo[3,4-c]pyridin-6(7H)-yl)-2-oxoethyl)piperidine-4-carbonitrile TFA salt] |

| Compound | IC50 [nM] |
| --- | --- |
| CC(C)(C)OC(=O)N1CC(CC(=O)N2CCc3c(C(F)(F)F)nn(Cc4ccc(Cl)cc4F)c3C2)C[C@@H]1C(=O)O (stereo partly drawn) [Example 5-56, (2R)-1-(tert-Butoxycarbonyl)-4-(2-(1-(4-chloro-2-fluorobenzyl)-3-(trifluoromethyl)-4,5-dihydro-1H-pyrazolo[3,4-c]pyridin-6(7H)-yl)-2-oxoethyl)pyrrolidine-2-carboxylic acid] | ≤ 100 |
